Where no end group is shown, it is not given here.

One assay concerns male SD strain rats. In words: Serum calcium content after intravenous administration to rats. The assay is classed as in vivo, rat. The conditions noted are these: 60 minutes after administration; for Serum calcium Content: 0.5 ml i.v. tail vein, value ± standard error. As for the experimental part: Four-weeks-old male SD strain rats (Clea Japan, Inc.) were fasted for 24 hours before the test and were offered in groups each consisting of 8 rats. Each rat of the control group was given 0.5 ml of physiological saline (Otsuka Pharmaceutical Co., Ltd.) containing 1% BSA (Sigma Chemical Co.) by intravenous administration through the tail vein. In the same manner, each rat of Compound 9-administered groups was given 0.5 ml of a solution of Compound 9 in physiological saline containing 1% BSA. Blood was collected from the right femoral artery of a rat 60 minutes after the administration and was centrifuged at 4° C. at 3000 rpm for 15 minutes to obtain a blood serum, and the serum calcium content was determined with calcium C-test WAKO (Wako Pure Chemical Industries, Ltd.). The results are expressed in terms of value ± standard error, and the difference was judged to be statistically significant at P <0.05 according to the Williams-Wilcoxon test.

Assay [1] concerns Osteoclast-like multinucleated cells (osteoclasts). The assay can be described thus: Calcitonin-like biological activity: bone resorption pit formation by osteoclasts on ivory pieces. Type of assay: cell-based, mouse. The conditions noted are these: compound concentration 10^-6 M, 48 hours. The method, then: 1-1 Preparation of Osteoclasts
Osteoclast-like multinucleated cells which were derived by coculturing mouse osteoblasts and bone marrow cells on collagen gel according to the method described in Akatsu T. et al., J. Bone Miner. Res., 7, 1297-1306 (1992) were used as osteoclasts. That is, osteoblasts derived from mouse vault of skull (5×10^5 cells) were put in a 100 mm dish (IWAKI) collagen-coated with Cellmatrix Type I-A (Nitta Gelatin Co., Ltd.) and cultured for one day in a CO2 incubator (37° C., 5% CO2) [medium: αMEM+10% FCS (both by GIBCO Co., Ltd.)]. After the medium was removed, mouse bone marrow cells (6×10^6 cells) were put on the osteoblasts and 10^-8 M calcitriol (Wako Pure Chemical Industries, Ltd.) and 10^-7 M dexamethasone (Sigma Chemical Co.) were added thereto. TRAP-positive multinucleate cells (osteoclast-like cells) which were obtained 7 days after the inoculation of osteoblasts were used as osteoclasts.
1-2 Culturing of Osteoclasts on Ivory Pieces
After removal of the medium from the dish, and rinsing with PBS(-), a mixture of collagenase and dispase (collagenase: Wako Pure Chemical Industries, Ltd., dispase: Godo Shusei Co., Ltd.) was added thereto to suspend the cells. The cell suspension was put into a tube and centrifuged at 800 rpm for 5 minutes. After removal of the supernatant by suction, the cells were suspended again in αMEM and the suspension was put on ivory pieces (diameter: 4 mm, thickness: 20 μm) in 100 μl portions. The ivory pieces were left to stand in a CO2 incubator for 2 hours to attach the osteoclasts thereto, and then taken out and gently transferred to a 48-well plate (IWAKI) to which a medium containing a test compound had been added in advance to determine the bone resorption activity 48 hours later according to the method described below. The medium containing the test compound was prepared by adding the test compound dissolved in HEPES buffer to the medium described in 1-1 to give the final concentrations shown in Tables 2 and 3.
1-3 Determination of Bone Resorption Activity by Staining of Ivory Pieces and Measurement of Bone Resorption Pit Area
The ivory pieces taken out of the medium were put into a tube containing 0.1 N aqueous ammonia and subjected to sonication treatment with a sonicator for 20-30 seconds to remove the osteoclasts. After being washed with distilled water to remove ammonia, the ivory pieces were dipped in a hematoxylin-eosin staining solution to stain resorption pits. The bone resorption pit formation rate was calculated based on microphotographs of stained ivory pieces according to the following equation by the use of an image analyzer. [formula]
The bone resorption inhibitory activity of test compounds were calculated according to the following equation. [formula]
A; Bone resorption pit formation rate obtained using no test compound
B; Bone resorption pit formation rate obtained using a test compound

As for “Compound 9: SEQ ID NO:9; cyclic peptide Compound 16 condensed to the N-terminus of the Compound 25 peptide (GNWHGTAPDGLGSLTEVLAKLAEYPRTNTGSGTP-NH2; lactam (positions not given here); not fully specified (bridges); printed as ⌐GNWHGTAPDGLGSLTEVLAKLAEYPRTNTGSGTP┐— NH$_2$; also: cyclic peptide Compound 16 condensed at N-terminus)”, the “Serum calcium Content” value in the assay on male SD strain rats (compound concentration 1 μg/ml) was determined as 10.41 ± 0.13 mg/dL; in the assay with male SD strain rats (compound concentration 10 μg/ml) it was 10.20 ± 0.16 mg/dL; in the assay on male SD strain rats (compound concentration 100 μg/ml, P < 0.01 vs control), 7.54 ± 0.29 mg/dL. In addition, in the assay on male SD strain rats (concentration of 100 μg/l (so in the source), 0.5 ml i.v.), the “serum calcium content compared with that of the control group” value is reported as “significantly lowered”. In addition, the “Bone resorption inhibitory activity (% inhibition)” value in assay [1] is listed as 53%.

Source of the values: patent publication US5977298A, “Calcitonin derivatives” (Kvowa Hakko Kogyo Co., Ltd., priority 1995, dated 1999).
